Laboratory results reported in patent US6908930B2, “4-substituted 7-AZA-indolin-2-ones and their use as protein kinase inhibitors” (Sugen, Inc., priority 1999, dated 2005).
Structures can show the parent of a compound that is named as a salt.

How the values were obtained:
[1] = target: T1, EGFR (Homo sapiens, UniProt P00533); experiment: Assay for modulation of EGFR activity (ELISA); format: biochemical; settings: for IC50: read-out: bio EGFR IC50
T1 construct: A431 […] cell lysate is stored at −80° C; host or cells: A431 cell lysate
Procedure: Using the following reagents, supplies, and method, the ability of compounds of the invention to modulate the in vitro activity of EGFR can be readily determined in an ELISA.
A431 […] cell lysate is stored at −80° C.
ATP/MnCl2 phosphorylation mix is prepared by adding 300 μL of 1.0 mM ATP and […] of 1M MnCl2 to 9.2 mL of dH2O and mixing. Ten mL of phosphorylation mix is enough for about 6 assay plates. Note that the mixture should be made fresh and kept on ice immediately before use, and that although the preferred ATP is fresh from powder stock, any remaining stock solution of ATP may be frozen at −20° C. in small aliquots to be used at a later time.
Coat Corning 96 well ELISA plates with 0.5 μg per well with SUMO1 in a volume of 100 μL PBS overnight, at 4° C. Remove unbound SUMO1 from wells by inverting plate to remove liquid. Wash 1× with distilled H2O by filling wells. Pat the plate on a paper towel to remove excess liquid.
Add 150 μL of Blocking Buffer to each well. Incubate for 30 minutes at room temperature, with shaking. Wash plate 3× with deionized water, then once with TBST. Pat plate on a paper towel to remove excess liquid and bubbles.
Dilute lysate in PBS (7 μg lysate/[…]) and add 100 μL of diluted lysate to each well. Shake at room temperature for 60 minutes. Wash 1× with distilled H2O by filling wells. Pat the plate on a paper towel to remove excess liquid.
Add 120 μL TBST to ELISA plate containing captured EGFR.
Dilute drugs/extracts 1:10 (unless specified otherwise) in TBST in 96-well polypropylene plates. (i.e., 10 μL compound+90 μL TBST). Add 13.5 μL diluted drugs/extracts to ELISA plate. […] Incubate for 30 minutes while shaking at room temperature.
Approximately 150 μL final volume in well with 3 uM ATP/5 mM MnCl2 final concentration in well. Incubate 5 minutes while shaking. Note that this is a timed event. It is critical that ATP/MnCl2 phosphorylates the receptor for only 5 minutes. It is best to add the ATP/MnCl2 with an automated 96 place pipettor workstation, then 5 minutes later stop the reaction with EDTA using the same workstation. Alternatively, addition can be performed using a 12 channel pipettor 1 row at a time, leaving 20 seconds between each row so that the reaction may be stopped with EDTA exactly 5 minutes later (this depends on the number of plates being phosphorylated in one batch). Shake between each addition.
[…] This is done using either the same work station as above, or the same timing method employed with the 12 channel pipettor. After the EDTA has been added, shake for 1 minute. Wash 4× with deionized water, twice with TBST.
Add 100 μL per well of anti-phosphotyrosine (1:3000 dilution in TBST). Incubate 30-45 minutes at room temperature, with shaking. Wash 1× with distilled H2O by filling wells. Pat the plate on a paper towel to remove excess liquid.
Incubate 30 minutes at room temperature, with shaking. Wash 1× with distilled H2O by filling wells. Pat the plate on a paper towel to remove excess liquid.
Add 100 μL of ABTS/H2O2 solution to each well. Incubate 5 to 10 minutes while shaking. Remove any bubbles. If necessary stop reaction with the addition of 100 μL of 0.2M HCl per well.
Read assay on Dynatech MR7000 ELISA reader.

[2] = target: T2, human cdk2/cyclin A (Homo sapiens, UniProt P24941); experiment: Assay for inhibition of CDK2 (Scintillation Proximity Assay); format: biochemical; settings: read-out: cdk2SPA IC50
T2 construct: made in house; host or cells: Sf9 (baculovirus)
Procedure: Using the following reagents, supplies, and method, the ability of compounds of the invention to assay for modulation of the in vitro kinase activity of human cdk2/cyclin A in a Scintillation Proximity Assay (SPA).
Activated cdk2/cyclin A enzyme complex is purified from Sf9 cells and stored at −80° C. in 200 μL aliquots. Human cdk2/cyclin A protein is expressed, activated, and purified from baculovirus infected sf9 cells as described previously. (J. Mol. Biol., 230:1317-1319 (1993)).
The substrate is a biotinylated peptide substrate (Debtide), which is a peptide biotin-X-[…] dissolved in dH2O at a concentration of 5 mg/mL and stored at −80° C. in 100 μL aliquots.
The Peptide/ATP mixture is prepared by mixing 9.979 mL dH2O with 0.00125 mL of cold 10 mM ATP, 0.010 mL of 5 mg/mL Debtide, and 0.010 mL of 10 μCi/mL γ^33P ATP.
A 2.5× kinase buffer is prepared by mixing 8.85 mL of dH2O with 0.625 mL of 1M Tris pH 7.4, 0.25 mL of 1M MgCl2, 0.25 mL of 10% NP40, and 0.025 mL of 1M DTT. Ten milliliters of kinase buffer mix is sufficient for about 4.5 assay plates.
Prepare solutions of inhibitors at 5× the desired final concentration in 5% DMSO. Add 10 μL to each well. For negative controls, add 10 μL 5% DMSO.
Dilute 5 μL of cdk2/cyclin A solution into 2.1 mL 2× kinase buffer (per plate) and add 20 μL enzyme per well. This can be added using a hand pipette or by using the Titertek Multidrop. […] For each freeze/thaw cycle, double the amount of enzyme used in the assay. Also, the enzyme should be thawed quickly (e.g., in the palm of one's hand) and be kept on ice prior to use in the assay. Add 10 μL of 0.5 M EDTA to the negative control wells.
To start kinase reaction, add 20 μL of peptide/ATP mixture using either a hand pipette or the Titertek Multidrop. Let sit on benchtop behind shield for one hour. No shaking is necessary and is not recommended when using Flexiplates (plates are not easy to add/remove from shaker).
Add 200 μL stop solution per well using either the Titertek Multidrop or hand pipette. Let stand at least 10 minutes. Spin plate approximately 2300 rpm for 3-5 minutes. Count plate on Trilux reader.

T1 sequence (P00533 25-1210): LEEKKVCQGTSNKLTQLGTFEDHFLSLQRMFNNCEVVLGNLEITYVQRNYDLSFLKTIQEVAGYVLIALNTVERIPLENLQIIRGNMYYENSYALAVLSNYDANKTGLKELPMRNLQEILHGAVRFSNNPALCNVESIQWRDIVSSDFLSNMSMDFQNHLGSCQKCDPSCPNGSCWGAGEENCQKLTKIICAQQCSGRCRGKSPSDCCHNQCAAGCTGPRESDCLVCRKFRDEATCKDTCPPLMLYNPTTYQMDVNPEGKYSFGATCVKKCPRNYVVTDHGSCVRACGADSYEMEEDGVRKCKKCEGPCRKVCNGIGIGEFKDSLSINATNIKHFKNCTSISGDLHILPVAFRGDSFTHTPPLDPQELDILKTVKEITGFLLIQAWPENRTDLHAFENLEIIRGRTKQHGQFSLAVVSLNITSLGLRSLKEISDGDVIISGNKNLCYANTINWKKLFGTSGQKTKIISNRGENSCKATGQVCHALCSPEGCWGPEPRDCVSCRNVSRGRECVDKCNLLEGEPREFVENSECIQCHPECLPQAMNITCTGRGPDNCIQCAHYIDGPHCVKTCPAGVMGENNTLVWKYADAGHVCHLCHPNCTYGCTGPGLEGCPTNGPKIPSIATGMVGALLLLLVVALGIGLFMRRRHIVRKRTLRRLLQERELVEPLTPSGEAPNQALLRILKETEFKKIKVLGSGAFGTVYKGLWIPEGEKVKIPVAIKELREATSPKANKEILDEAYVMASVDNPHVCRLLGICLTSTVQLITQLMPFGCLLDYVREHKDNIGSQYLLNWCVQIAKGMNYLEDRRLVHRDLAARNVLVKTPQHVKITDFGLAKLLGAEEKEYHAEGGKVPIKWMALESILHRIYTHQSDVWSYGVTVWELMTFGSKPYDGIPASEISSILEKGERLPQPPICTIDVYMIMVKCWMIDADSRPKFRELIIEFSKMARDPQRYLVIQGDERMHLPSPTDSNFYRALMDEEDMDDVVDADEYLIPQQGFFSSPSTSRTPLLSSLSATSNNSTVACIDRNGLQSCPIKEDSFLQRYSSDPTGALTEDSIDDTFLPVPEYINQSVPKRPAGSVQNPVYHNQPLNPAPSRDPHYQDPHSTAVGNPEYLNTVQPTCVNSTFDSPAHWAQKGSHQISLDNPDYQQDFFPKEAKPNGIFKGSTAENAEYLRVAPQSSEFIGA

Row | IC50 [1] [nM] | IC50 [2] [nM] | inhibition of EGFR (in words) ([1]; hydrochloride salt) | SMILES
1 | > 20000 |  |  | Cc1cc(C(=O)N2CCOCC2)[nH]c1/C=C1\C(=O)N(C)c2ncnc(Nc3ccc(F)c(Cl)c3)c21 [Formula 34]
2 | > 20000 | 10 |  | Cc1nc[nH]c1C=C1C(=O)Nc2ncnc(N3CCN(C)CC3)c21 [Formula 11]
3 | 510 | > 10000 |  | Cc1cc(C(=O)NCCN2CCOCC2)[nH]c1C=C1C(=O)Nc2nccc(Nc3ccc(F)c(Cl)c3)c21 [Formula 3, 5-[4-(3-CHLORO-4-FLUORO-PHENYLAMINO)-2-OXO-1,2-DIHYDRO-PYRROLO[2,3-B]PYRIDIN-3-YLIDENEMETHYL]-4-METHYL-1H-PYRROLE-2-CARBOXYLIC ACID (2-MORPHOLIN-4-YL-ETHYL)-AMIDE]
4 | > 20000 |  |  | O=C1Nc2ncnc(N3CCCCC3)c2C1=Cc1ccc(C(=O)NCCN2CCOCC2)[nH]1 [Formula 5, 5-(6-OXO-4-PIPERIDIN-1-YL-6,7-DIHYDRO-PYRROLO[2,3-D]PYRIMIDIN-5-YLIDENEMETHYL)-1H-PYRROLE-2-CARBOXYLIC ACID (2-MORPHOLIN-4-YL-ETHYL)-AMIDE]
5 | 20 |  |  | O=C1Nc2ncnc(Nc3ccc(F)c(Cl)c3)c2C1=Cc1ccc(C(=O)NCCN2CCOCC2)[nH]1 [Formula 15, 5-[4-(3-CHLORO-4-FLUORO-PHENYLAMINO)-6-OXO-6,7-DIHYDRO-PYRROLO[2,3-D]PYRIMIDIN-5-YLIDENEMETHYL]-1H-PYRROLE-2-CARBOXYLIC ACID (2-MORPHOLIN-4-YL-ETHYL)-AMIDE]
6 |  | > 10000 |  | Cc1cc(C(=O)NCCN2CCOCC2)[nH]c1C=C1C(=O)Nc2ncnc(Nc3ccc(F)c(Cl)c3)c21 [Formula 4, 5-[4-(3-CHLORO-4-FLUORO-PHENYLAMINO)-6-OXO-6,7-DIHYDRO-PYRROLO[2,3-D]PYRIMIDIN-5-YLIDENEMETHYL]-4-METHYL-1H-PYRROLE-2-CARBOXYLIC ACID (2-MORPHOLIN-4-YL-ETHYL)-AMIDE HYDROCHLORIDE]
7 | 1 |  | inhibits EGFR at very low concentrations | Cc1cc(C(=O)NCCN2CCOCC2)[nH]c1C=C1C(=O)Nc2ncnc(Nc3ccc4c(ccn4Cc4ccccc4)c3)c21.Cl [Formula 6, 5-[4-(1-BENZYL-1H-INDOL-5-YLAMINO)-6-OXO-6,7-DIHYDRO-PYRROLO[2,3-D]PYRIMIDIN-5-YLIDENEMETHYL]-4-METHYL-1H-PYRROLE-2-CARBOXYLIC ACID (2-MORPHOLIN-4-YL-ETHYL)-AMIDE HYDROCHLORIDE]
8 | > 20000 |  |  | Cc1cc(C(=O)NCCN2CCOCC2)[nH]c1C=C1C(=O)Nc2ncnc(N3CCN(C)CC3)c21 [Formula 10, 4-METHYL-5-[4-(4-METHYL-PIPERAZIN-1-YL)-6-OXO-6,7-DIHYDRO-PYRROLO[2,3-D]PYRIMIDIN-5-YLIDENEMETHYL]-1H-PYRROLE-2-CARBOXYLIC ACID (2-MORPHOLIN-4-YL-ETHYL)-AMIDE]
9 | 20 |  |  | C#Cc1cccc(Nc2ncnc3c2C(=Cc2[nH]c(C(=O)NCCN4CCOCC4)cc2C)C(=O)N3)c1 [Formula 17, 5-[4-(3-ETHYNYL-PHENYLAMINO)-6-OXO-6,7-DIHYDRO-PYRROLO[2,3-D]PYRIMIDIN-5-YLIDENEMETHYL]-4-METHYL-1H-PYRROLE-2-CARBOXYLIC ACID (2-MORPHOLIN-4-YL-ETHYL)-AMIDE]
10 | 240 |  |  | Cc1cc(C=C2C(=O)Nc3ncnc(Nc4ccc(F)c(Cl)c4)c32)[nH]c1C(=O)N1CCOCC1 [Formula 37]
11 | 150 |  |  | CC(C)c1cc(CCC(=O)O)c(/C=C2\C(=O)Nc3ncnc(Nc4ccc(F)c(Cl)c4)c32)[nH]1 [Formula 27]

Second part, the molecule before the results:

Row | SMILES | IC50 [1] [nM] | IC50 [2] [nM] | inhibition of EGFR (in words) ([1]; hydrochloride salt)
12 | Cc1c(C(=O)N2CCOCC2)c[nH]c1/C=C1\C(=O)Nc2ncnc(Nc3ccc(F)c(Cl)c3)c21 [Formula 31] | 210 |  | 
13 | O=C1Nc2ncnc(Nc3ccc4c(ccn4Cc4ccccc4)c3)c2C1=Cc1ccc(C(=O)NCCN2CCOCC2)[nH]1 [Formula 12, 5-[4-(1-BENZYL-1H-INDOL-5-YLAMINO)-6-OXO-6,7-DIHYDRO-PYRROLO[2,3-D]PYRIMIDIN-5-YLIDENEMETHYL]-1H-PYRROLE-2-CARBOXYLIC ACID (2-MORPHOLIN-4-YL-ETHYL)-AMIDE HYDROCHLORIDE] | 4 |  | 
14 | Cc1nc[nH]c1C=C1C(=O)Nc2ncnc(Nc3ccc(F)c(Cl)c3)c21 [Formula 8] | 60 | 2620 | 
15 | Cc1cc(C)c(C=C2C(=O)Nc3ncnc(Nc4ccc(F)c(Cl)c4)c32)[nH]1 [Formula 9] | 40 |  | 
16 | C#Cc1cccc(Nc2ncnc3c2C(=Cc2[nH]c(C)c(CCCN4CCOCC4)c2C)C(=O)N3)c1 [Formula 18] | 180 |  | 
17 | Cc1cc(C(=O)N2CCN(C)CC2)[nH]c1/C=C1\C(=O)N(C)c2ncnc(Nc3ccc(F)c(Cl)c3)c21 [Formula 36] | 17400 |  | 
18 | C#Cc1cccc(Nc2ncnc3c2C(=Cc2ccc(C(=O)NCCN4CCOCC4)[nH]2)C(=O)N3)c1 [Formula 16, 5-[4-(3-ETHYNYL-PHENYLAMINO)-6-OXO-6,7-DIHYDRO-PYRROLO[2,3-D]PYRIMIDIN-5-YLIDENEMETHYL]-1H-PYRROLE-2-CARBOXYLIC ACID (2-MORPHOLIN-4-YL-ETHYL)-AMIDE HYDROCHLORIDE] | 100 |  | 
19 | Cc1[nH]c(C=C2C(=O)Nc3ncnc(Nc4ccc(F)c(Cl)c4)c32)c(C)c1CCCN1CCOCC1 [Formula 7, 4-(3-CHLORO-4-FLUORO-PHENYLAMINO)-5-[3,5-DIMETHYL-4-(3-MORPHOLIN-4-YL-PROPYL)-1H-PYRROL-2-YLMETHYLENE]-5,7-DIHYDRO-PYRROLO[2,3-D]PYRIMIDIN-6-ONE HYDROCHLORIDE] | 160 |  | 
20 | Cc1nc[nH]c1C=C1C(=O)Nc2ncnc(N3CCOCC3)c21 [Formula 14] | > 20000 | 40 | 
21 | O=C1Nc2ncnc(N3CCOCC3)c2C1=Cc1ccc(C(=O)NCCN2CCOCC2)[nH]1 [Formula 13, 5-(4-MORPHOLIN-4-YL-6-OXO-6,7-DIHYDRO-PYRROLO[2,3-D]PYRIMIDIN-5-YLIDENEMETHYL)-1H-PYRROLE-2-CARBOXYLIC ACID (2-MORPHOLIN-4-YL-ETHYL)-AMIDE] | 19100 |  | 
